Measured values taken from the NIST ThermoML archive (doi:10.1016/j.fluid.2016.08.002).

Assay: xn = mol fraction of the nth substance listed
Conditions: Gas, Vibrating tube method

S [hydrogen sulfide] + C
Conditions | mass density [kg/m3]
293.23 K, 18686 kPa, x2 = 0.8685 | 200.27
293.23 K, 19770 kPa, x2 = 0.8685 | 210.3
293.23 K, 22173 kPa, x2 = 0.8685 | 230.34
293.23 K, 22860 kPa, x2 = 0.8685 | 235.56
293.27 K, 193 kPa, x2 = 0.8197 | 1.54
293.27 K, 227 kPa, x2 = 0.714 | 1.99
293.27 K, 498 kPa, x2 = 0.8197 | 4.03
293.27 K, 560 kPa, x2 = 0.714 | 4.92
293.27 K, 7261 kPa, x2 = 0.714 | 85.92
293.27 K, 7749 kPa, x2 = 0.714 | 94.83
293.28 K, 1101 kPa, x2 = 0.714 | 9.72
293.28 K, 1547 kPa, x2 = 0.714 | 14.1
293.28 K, 2065 kPa, x2 = 0.714 | 19.16
293.28 K, 8092 kPa, x2 = 0.714 | 103.64
293.29 K, 2976 kPa, x2 = 0.714 | 28.53
293.29 K, 3489 kPa, x2 = 0.714 | 33.95
293.29 K, 8523 kPa, x2 = 0.714 | 108.8
293.29 K, 10516 kPa, x2 = 0.714 | 145.41
293.29 K, 11236 kPa, x2 = 0.714 | 161.66
293.29 K, 13780 kPa, x2 = 0.714 | 213.21
293.29 K, 19219 kPa, x2 = 0.8685 | 205.31
293.29 K, 23988 kPa, x2 = 0.714 | 321.16
293.29 K, 25012 kPa, x2 = 0.714 | 327.5
293.3 K, 2511 kPa, x2 = 0.714 | 23.63
293.3 K, 9149 kPa, x2 = 0.714 | 119.96
293.3 K, 9741 kPa, x2 = 0.714 | 129.36
293.3 K, 11789 kPa, x2 = 0.714 | 174.33
293.3 K, 13528 kPa, x2 = 0.714 | 208.17
293.3 K, 14426 kPa, x2 = 0.714 | 223.09
293.3 K, 15049 kPa, x2 = 0.714 | 233.3
293.3 K, 15503 kPa, x2 = 0.714 | 239.94
293.3 K, 22979 kPa, x2 = 0.714 | 314.55
293.3 K, 23460 kPa, x2 = 0.714 | 317.83
293.3 K, 24512 kPa, x2 = 0.714 | 324.48
293.3 K, 25515 kPa, x2 = 0.714 | 330.43
293.3 K, 25988 kPa, x2 = 0.714 | 333.07
293.31 K, 6513 kPa, x2 = 0.8197 | 63.51
293.31 K, 6885 kPa, x2 = 0.714 | 80.49
293.31 K, 12964 kPa, x2 = 0.714 | 198.31
293.31 K, 14523 kPa, x2 = 0.714 | 224.65
293.31 K, 16108 kPa, x2 = 0.714 | 249.28
293.31 K, 21026 kPa, x2 = 0.714 | 300.53
293.31 K, 22118 kPa, x2 = 0.714 | 308.67
293.31 K, 22512 kPa, x2 = 0.714 | 311.24
293.31 K, 23712 kPa, x2 = 0.714 | 319.93
293.31 K, 26506 kPa, x2 = 0.714 | 335.86
293.32 K, 5019 kPa, x2 = 0.8197 | 46.91
293.32 K, 5508 kPa, x2 = 0.8197 | 52.59
293.32 K, 5943 kPa, x2 = 0.714 | 66.82
293.32 K, 7004 kPa, x2 = 0.8197 | 68.5
293.32 K, 7520 kPa, x2 = 0.8197 | 74.89
293.32 K, 8507 kPa, x2 = 0.8197 | 87.23
293.32 K, 9526 kPa, x2 = 0.8197 | 100.87
293.32 K, 10518 kPa, x2 = 0.8197 | 114.24
293.32 K, 12220 kPa, x2 = 0.714 | 183.56
293.32 K, 12521 kPa, x2 = 0.714 | 189.88
293.32 K, 22053 kPa, x2 = 0.714 | 308.34
293.33 K, 1434 kPa, x2 = 0.8197 | 12.03
293.33 K, 3440 kPa, x2 = 0.8197 | 30.85
293.33 K, 6464 kPa, x2 = 0.714 | 75.29
293.33 K, 8008 kPa, x2 = 0.8197 | 80.89
293.33 K, 9072 kPa, x2 = 0.8197 | 94.8
293.33 K, 10169 kPa, x2 = 0.714 | 136.99
293.33 K, 10922 kPa, x2 = 0.8197 | 121.63
293.33 K, 18012 kPa, x2 = 0.714 | 271.26
293.33 K, 18543 kPa, x2 = 0.714 | 276.99
293.33 K, 19012 kPa, x2 = 0.714 | 281.75
293.33 K, 19476 kPa, x2 = 0.714 | 286.23
293.33 K, 21863 kPa, x2 = 0.714 | 306.8
293.33 K, 26879 kPa, x2 = 0.714 | 337.31
293.33 K, 29517 kPa, x2 = 0.714 | 349.82
293.33 K, 29998 kPa, x2 = 0.714 | 352.02
293.34 K, 6006 kPa, x2 = 0.8197 | 58.11
293.34 K, 14027 kPa, x2 = 0.8197 | 162.75
293.34 K, 14501 kPa, x2 = 0.8197 | 169.12
293.34 K, 16524 kPa, x2 = 0.714 | 253.44
293.34 K, 17035 kPa, x2 = 0.714 | 260.09
293.34 K, 20081 kPa, x2 = 0.714 | 291.58
293.34 K, 20504 kPa, x2 = 0.714 | 295.67
293.34 K, 22090 kPa, x2 = 0.8197 | 248.06
293.35 K, 936 kPa, x2 = 0.8197 | 7.74
293.35 K, 2422 kPa, x2 = 0.8197 | 20.5
293.35 K, 4502 kPa, x2 = 0.8197 | 41.72
293.35 K, 11685 kPa, x2 = 0.8197 | 130.63
293.35 K, 17740 kPa, x2 = 0.714 | 267.95
293.35 K, 21512 kPa, x2 = 0.8197 | 243.53
293.36 K, 1962 kPa, x2 = 0.8197 | 16.56
293.36 K, 12068 kPa, x2 = 0.8197 | 136.11
293.36 K, 12506 kPa, x2 = 0.8197 | 142.15
293.36 K, 13036 kPa, x2 = 0.8197 | 149.41
293.36 K, 13500 kPa, x2 = 0.8197 | 155.72
293.37 K, 10013 kPa, x2 = 0.8197 | 107.38
293.37 K, 15006 kPa, x2 = 0.8197 | 175.59
293.37 K, 22488 kPa, x2 = 0.8197 | 251.05
293.37 K, 26028 kPa, x2 = 0.8197 | 274.53
293.37 K, 27520 kPa, x2 = 0.8197 | 283
293.37 K, 29405 kPa, x2 = 0.8197 | 292.65
293.37 K, 29932 kPa, x2 = 0.8197 | 295.13
293.38 K, 2915 kPa, x2 = 0.8197 | 26.63
293.38 K, 27986 kPa, x2 = 0.8197 | 285.56
293.38 K, 28437 kPa, x2 = 0.8197 | 287.96
293.38 K, 28979 kPa, x2 = 0.8197 | 290.66
293.39 K, 5407 kPa, x2 = 0.714 | 58.83
293.39 K, 22971 kPa, x2 = 0.8197 | 254.58
293.39 K, 24024 kPa, x2 = 0.8197 | 261.83
293.39 K, 24659 kPa, x2 = 0.8197 | 266.01
293.4 K, 17009 kPa, x2 = 0.8197 | 200
293.4 K, 29019 kPa, x2 = 0.714 | 347.54
293.41 K, 16017 kPa, x2 = 0.8197 | 188.26
293.41 K, 17526 kPa, x2 = 0.8197 | 205.67
293.41 K, 19019 kPa, x2 = 0.8197 | 221.14
293.41 K, 19519 kPa, x2 = 0.8197 | 225.91
293.41 K, 20054 kPa, x2 = 0.8197 | 230.93
293.41 K, 21059 kPa, x2 = 0.8197 | 239.83
293.41 K, 23490 kPa, x2 = 0.8197 | 258.21
293.41 K, 25538 kPa, x2 = 0.8197 | 271.56
293.41 K, 27022 kPa, x2 = 0.8197 | 280.18
293.42 K, 3851 kPa, x2 = 0.714 | 38.01
293.42 K, 3941 kPa, x2 = 0.8197 | 35.88
293.42 K, 18033 kPa, x2 = 0.8197 | 211.2
293.42 K, 18536 kPa, x2 = 0.8197 | 216.41
293.42 K, 20511 kPa, x2 = 0.8197 | 234.95
293.42 K, 25034 kPa, x2 = 0.8197 | 268.44
293.42 K, 26523 kPa, x2 = 0.8197 | 277.36
293.42 K, 28586 kPa, x2 = 0.714 | 345.52
293.43 K, 4386 kPa, x2 = 0.714 | 46.59
293.43 K, 28085 kPa, x2 = 0.714 | 343.33
293.44 K, 4823 kPa, x2 = 0.714 | 51.27
293.45 K, 15532 kPa, x2 = 0.8197 | 182.32
293.45 K, 16485 kPa, x2 = 0.8197 | 193.92
293.53 K, 27520 kPa, x2 = 0.714 | 340.85
293.64 K, 27145 kPa, x2 = 0.714 | 339.08
